Patent publication US8309586B2, “Glucokinase activators and pharmaceutical compositions containing the same as an active ingredient” (LG Life Sciences Ltd., priority 2007, dated 2012)

Tested on: Glucokinase known as hexokinase IV (human GK isoform 1, pancreas form and human GK isoform 2, liver form)
Assay: Glucokinase enzymatic activity assay (G6PDH-coupled, NADH absorbance at 340 nm)
Format: biochemical
Details: 5 mM glucose, 1 mM ATP, 37 nM GK, 10 min at room temperature
Protocol: Glucokinase known as hexokinase IV (human GK isoform 1, pancreas form and human GK isoform 2, liver form) was cloned into an expression vector pET15 fx (Novagen Co.), transformed to E. coli BL21 (DE3) (Invitrogen Co.) strain, expressed, and purified using a nickel column. Then, the glucokinase obtained from dialysis was used in the following assay.
Glucokinase assay was performed by measuring absorbance according to the conventional manner. Briefly speaking, glucokinase converts the substrate glucose to glucose-6-phosphate under certain conditions, and glucose-6-phosphate dehydrogenase irreversibly converts glucose-6-phosphate to gluconate-6-phosphate. During this procedure, NADH is formed, and its absorbance is measured to calculate the enzymatic activity.
In the measurement of the enzymatic activity, each compound was diluted by two-fold from the maximum to the minimum concentrations, and 2 μl of each solution was added to 96 well UV plate (BD bioscience). 60 μl of the first mixture (final concentrations 25 mM Hepes, 25 mM KCl, 2 mM MgCl2, 1 mM DTT) was added, and thoroughly mixed. 38 μl of the enzyme mixture (final concentrations 1 mM ATP, 1 mM NAD, 5 mM glucose, 0.85U G6PDH, 37 nM GK) was added (final volume 100 μl), and the mixture was reacted for 10 min at room temperature. The absorbance of NADH was measured at 340 nm using a UV spectrometer (Molecular Device).
The enzyme activating abilities of the compounds according to the present invention are represented as AC1.5 (the compound concentration at which the enzymatic activity is increased by 1.5 times, nM), which is in the range of 0.001 uM to 30 uM or less, preferably 0.001 uM to 10 uM, more preferably 0.001 uM to 1 uM.

Row | Compound | AC1.5 (the compound concentration at which the enzymatic activity is increased by 1.5 times)
1 | CN(C)CC[C@@H]1CSC(c2cc3cccc(Oc4ccccc4)c3[nH]2)=N1 [Example 178, dimethyl-{2-[(R)-2-(7-phenoxy-1H-indol-2-yl)-4,5-dihydro-thiazol-4-yl]ethyl}-amine] | 21 nM
2 | CN(C)CC[C@@H]1CSC(c2cc3cc(Cl)cc(NC4CCCC4)c3[nH]2)=N1 [Example 94, {5-chloro-2-[(R)-4-(2-dimethylamino-ethyl)-4,5-dihydro-thiazol-2-yl]-1H-indol-7-yl}-cyclopentyl-amine] | 15 nM
3 | OC1CCN(CC[C@@H]2CSC(c3cc4cc(Cl)cc(NC5CCCC5)c4[nH]3)=N2)CC1 [Example 101, 1-{2-[(R)-2-(5-chloro-7-cyclopentylamino-1H-indol-2-yl)-4,5-dihydro-thiazol-4-yl]-ethyl}-piperidin-4-ol] | 10 nM
4 | CN(C)C1CCN(C(=O)C[C@@H]2CSC(c3cc4cc(Cl)cc(NC5CCCC5)c4[nH]3)=N2)C1 (stereo partly drawn) [Example 79, 2-[(R)-2-(5-chloro-7-cyclopentylamino-1H-indol-2-yl)-4,5-dihydro-thiazol-4-yl]-1-(3-dimethylamino-pyrrolidin-1-yl)-ethanone] | 19 nM
5 | O=C1CN(CC[C@@H]2CSC(c3cc4cc(F)cc(NC5CCCC5)c4[nH]3)=N2)CCN1 [Example 130, 4-{2-[(R)-2-(7-cyclopentylamino-5-fluoro-1H-indol-2-yl)-4,5-dihydro-thiazol-4-yl]-ethyl}-piperazin-2-one] | 14 nM
6 | CS(=O)(=O)Cc1cc(NC2CCCC2)c2[nH]c(C3=N[C@H](CO)CS3)cc2c1 [Example 24, [(R)-2-(7-cyclopentylamino-5-methanesulfonylmethyl-1H-indol-2-yl)-4,5-dihydro-thiazol-4-yl]-methanol] | 32 nM
7 | COC(=O)C[C@@H]1CSC(c2cc3cc(Cl)cc(NC4CCOCC4)c3[nH]2)=N1 [Example 30, {(R)-2-[5-chloro-7-(tetrahydro-pyran-4-ylamino)-1H-indol-2-yl]-4,5-dihydro-thiazol-4-yl}acetic acid methyl ester] | 28 nM
8 | COc1cc(NC2CCCC2)c2[nH]c(C3=N[C@H](CC(=O)O)CS3)cc2c1 [Example 48, [(R)-2-(7-cyclopentylamino-5-methoxy-1H-indol-2-yl)-4,5-dihydro-thiazol-4-yl]-acetic acid] | 9 nM
9 | CS(=O)(=O)Cc1cc(NC2CCCC2)c2[nH]c(C3=N[C@H](CCN4CCOCC4)CS3)cc2c1 [Example 71, cyclopentyl-{5-methanesulfonylmethyl-2-[(R)-4-(2-morpholin-4-yl-ethyl)-4,5-dihydro-thiazol-2-yl]-1H-indol-7-yl}-amine] | 31 nM
10 | O=C(O)COC[C@@H]1CSC(c2cc3cc(F)cc(NC4CCCC4)c3[nH]2)=N1 [Example 171, [(R)-2-(7-cyclopentylamino-5-fluoro-1H-indol-2-yl)-4,5-dihydro-thiazol-4-ylmethoxy]-acetic acid] | 23 nM
11 | O=C(CC[C@@H]1CSC(c2cc3cc(Cl)cc(NC4CCCC4)c3[nH]2)=N1)NCCN1CCOCC1 [Example 153, 3-[(R)-2-(5-chloro-7-cyclopentylamino-1H-indol-2-yl)-4,5-dihydro-thiazol-4-yl]-N-(2-morpholin-4-yl-ethyl)-propionamide] | 12 nM
12 | CN1CCN(C(=O)C[C@@H]2CSC(c3cc4cc(F)cc(NC5CCCC5)c4[nH]3)=N2)CC1 [Example 84, 2-[(R)-2-(7-cyclopentylamino-5-fluoro-1H-indol-2-yl)-4,5-dihydro-thiazol-4-yl]-1-(4-methyl-piperazin-1-yl)-ethanone] | 27 nM
13 | CS(=O)(=O)CC[C@@H]1CSC(c2cc3cc(F)cc(NC4CCOCC4)c3[nH]2)=N1 [Example 138, (5-fluoro-2-[(R)-4-(2-methanesulfonyl-ethyl)-4,5-dihydro-thiazol-2-yl]-1H-indol-7-yl)-(tetrahydro-pyran-4-yl)-amine] | 36 nM
14 | CN1CCN(CC[C@@H]2CSC(c3cc4cc(Cl)cc(NC5CCCC5)c4[nH]3)=N2)CC1 [Example 100, (5-chloro-2-{(R)-4-[2-(4-methyl-piperazin-1-yl)-ethyl]-4,5-dihydro-thiazol-2-yl}-1H-indol-7-yl)-cyclopentyl-amine] | 11 nM
15 | CN(C)CC[C@@H]1CSC(c2cc3cc(F)cc(NC4CCCC4)c3[nH]2)=N1 [Example 127, cyclopentyl-{2-[(R)-4-(2-dimethylamino-ethyl)-4,5-dihydro-thiazol-2-yl]-5-fluoro-1H-indol-7-yl}-amine] | 21 nM
16 | COC(=O)C[C@@H]1CSC(c2cc3cc(Oc4cccnc4)cc(NC4CCOCC4)c3[nH]2)=N1 [Example 58, {(R)-2-[5-(pyridin-3-yloxy)-7-(tetrahydro-pyran-4-ylamino)-1H-indol-2-yl]-4,5-dihydro-thiazol-4-yl}-acetic acid methyl ester] | 14 nM
17 | Clc1cc(NC2CCOCC2)c2[nH]c(C3=N[C@H](CCN4CCN(c5ncccn5)CC4)CS3)cc2c1 [Example 123, (5-chloro-2-{(R)-4-[2-(4-pyrimidin-2-yl-piperazin-1-yl)-ethyl]-4,5-dihydro-thiazol-2-yl}-1H-indol-7-yl)-(tetrahydro-pyran-4-yl)-amine] | 62 nM
18 | OC[C@@H]1CSC(c2cc3cc(Cl)cc(NC4CCOCC4)c3[nH]2)=N1 [Example 8, {(R)-2-[5-chloro-7-(tetrahydro-pyran-4-ylamino)-1H-indol-2-yl]-4,5-dihydro-thiazol-4-yl}-methanol] | 32 nM
19 | O=C(C[C@@H]1CSC(c2cc3cc(Cl)cc(NC4CCCC4)c3[nH]2)=N1)NCCN1CCOCC1 [Example 74, 2-[(R)-2-(5-chloro-7-cyclopentylamino-1H-indol-2-yl)-4,5-dihydro-thiazol-4-yl]-N-(2-morpholin-4-yl-ethyl)-acetamide] | 14 nM
20 | OC[C@@H]1CSC(c2cc3cc(Cl)cc(NC4CCCC4)c3[nH]2)=N1 [Example 7, [(R)-2-(5-chloro-7-cyclopentylamino-1H-indol-2-yl)-4,5-dihydro-thiazol-4-yl]-methanol] | 7 nM
21 | CS(=O)(=O)CC[C@@H]1CSC(c2cc3cccc(NC4CCOCC4)c3[nH]2)=N1 [Example 145, {2-[(R)-4-(2-methanesulfonyl-ethyl)-4,5-dihydro-thiazol-2-yl]-1H-indol-7-yl}-(tetrahydro-pyran-4-yl)-amine] | 138 nM
22 | Cc1cc(NC2CCOCC2)c2[nH]c(C3=N[C@H](CC(=O)O)CS3)cc2c1 [Example 62, {(R)-2-[5-methyl-7-(tetrahydro-pyran-4-ylamino)-1H-indol-2-yl]-4,5-dihydro-thiazol-4-yl}-acetic acid] | 36 nM
23 | c1ccc(Oc2cccc3cc(C4=N[C@H](CCN5CCOCC5)CS4)[nH]c23)cc1 [Example 176, 2-[(R)-4-(2-morpholin-4-yl-ethyl)-4,5-dihydro-thiazol-2-yl]-7-phenoxy-1H-indole] | 178 nM
24 | O=C(O)[C@@H]1CCCN1CC[C@@H]1CSC(c2cc3cc(Cl)cc(NC4CCCC4)c3[nH]2)=N1 [Example 107, (S)-1-{2-[(R)-2-(5-chloro-7-cyclopentylamino-1H-indol-2-yl)-4,5-dihydro-thiazol-4-yl]-ethyl}-pyrrolidine-2-carboxylic acid] | 63 nM
25 | OC[C@@H]1CSC(c2cc3cc(Cc4cc[nH]c4)cc(NC4CCCC4)c3[nH]2)=N1 [Example 23, {(R)-2-[7-cyclopentylamino-5-(1H-pyrrol-3-ylmethyl)-1H-indol-2-yl]-4,5-dihydro-thiazol-4-yl}-methanol] | 19 nM
26 | CNC(=O)C[C@@H]1CSC(c2cc3cccc(NC4CCOCC4)c3[nH]2)=N1 [Example 92, N-methyl-2-{(R)-2-[7-(tetrahydro-pyran-4-ylamino)-1H-indol-2-yl]-4,5-dihydro-thiazol-4-yl}-acetamide] | 112 nM
27 | O=C(O)CC[C@@H]1CSC(c2cc3cc(Br)cc(NC4CCCC4)c3[nH]2)=N1 [Example 163, 3-[(R)-2-(5-bromo-7-cyclopentylamino-1H-indol-2-yl)-4,5-dihydro-thiazol-4-yl]-propionic acid] | 5 nM
